Results on 13 compounds are retold here after patent US11834440B2, “Beta-lactam derivatives for the treatment of diseases” (Insilico Medicine IP Limited, priority 2021, dated 2023).

For orientation: IC50 means the concentration needed to halve the response being measured. Low readings indicate inhibition by little substance, high ones a need for much substance.

Where only a bound is given, the exact number is not on record here.

For the experiment, the target named is QPCTL (Homo sapiens (Human), UniProt Q9NXS2). The experiment is described as follows: QPCTL inhibition, SensoLyte Green Glutaminyl Cyclase Activity Assay. Format: biochemical. As to conditions: 0.8 nM 2x enzyme solution, 45 min at 37° C., 50 mM Tris pH 8.0, 1% DMSO. As for the experimental part: Preparation of working solution: 2×Glutaminyl Cyclase substrate was diluted in assay buffer to […]. 2×enzyme solution and QPCTL was diluted in assay buffer to 0.8 nM. Glutaminyl Cyclase Developer was diluted in assay buffer to 1×(containing 10 mM 1-Benzyl-Imidazole). Serial dilution of test compounds was performed in DMSO. The final DMSO concentration in 100 μl reaction was 1%. The assay buffer was 50 mM Tris, pH 8.0, 0.01% BSA.
Chain of QPCTL (Q9NXS2 whole entry, species assumed): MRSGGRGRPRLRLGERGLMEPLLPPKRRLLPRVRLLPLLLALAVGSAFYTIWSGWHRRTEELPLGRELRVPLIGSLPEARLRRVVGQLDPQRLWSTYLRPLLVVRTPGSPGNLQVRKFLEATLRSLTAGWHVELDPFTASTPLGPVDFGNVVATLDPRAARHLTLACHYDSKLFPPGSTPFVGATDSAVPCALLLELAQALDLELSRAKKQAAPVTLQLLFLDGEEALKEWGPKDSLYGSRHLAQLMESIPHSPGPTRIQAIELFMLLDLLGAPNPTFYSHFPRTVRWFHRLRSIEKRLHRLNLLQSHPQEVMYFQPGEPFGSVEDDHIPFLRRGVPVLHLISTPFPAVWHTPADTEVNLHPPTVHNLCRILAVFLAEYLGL
Procedure: 50 μL of 2×Glutaminyl Cyclase substrate solution was added into the assay plate followed by 50 μL of 2×enzyme solution. The plate was centrifuged for 1 min at 1000 rmp. Next the plate was incubated for 45 minutes at 37° C. This was followed by the additional of 50 μL of the prepared Glutaminyl Cyclase developer and incubated for additional 30 min at 37° C. Results were read on SpectraMax Paradigm detecting with emission at Ex/Em=490 nm/520 nm.
A Z′ value was calculated for each assay plate. The Z′ value must be >0.5 or the plate was disqualified. […] Results were calculated using GraphPad Prism 7 software is used for IC50 determination.

In the case of `CC1(C)C(=O)N(c2ccc3[nH]cnc3c2)C1c1c(F)cc(OCCC(F)F)cc1F` (racemic) [Compound 2, 1-(1H-benzo[d]imidazol-5-yl)-4-(4-(3,3-difluoropropoxy)-2,6-difluorophenyl)-3,3-dimethylazetidin-2-one], the IC50 is greater than 1000 nM. The figure for `O=C1N(c2ccc3[nH]cnc3c2)C(c2c(F)cc(OCCC(F)F)cc2F)C12CCC2` (racemic) [Compound 3, 2-(1H-benzo[d]imidazol-5-yl)-3-(4-(3,3-difluoropropoxy)-2,6-difluorophenyl)-2-azaspiro[3.3]heptan-1-one] is 25 to 1000 nM; for `CN1CCN(c2cc(F)c(C3CC(=O)N3c3ccc4[nH]cnc4c3)c(F)c2)CC1` (racemic) [Compound 4, 1-(1H-benzo[d]imidazol-5-yl)-4-(2,6-difluoro-4-(4-methylpiperazin-1-yl)phenyl)azetidin-2-one] it is 2 to 25 nM.

Consider `CC1C(=O)N(c2ccc3[nH]cnc3c2)C1c1c(F)cc(OCCC(F)F)cc1F` (racemic) [Compound 7, 1-(1H-benzo[d]imidazol-5-yl)-4-(4-(3,3-difluoropropoxy)-2,6-difluorophenyl)-3-methylazetidin-2-one], for which the IC50 lay within 2 to 25 nM. The result for `O=C1C(O)C(c2c(F)cc(OCCC(F)F)cc2F)N1c1ccc2[nH]cnc2c1` (racemic) [Compound 8, (cis and racemic)-1-(1H-benzo[d]imidazol-5-yl)-4-(4-(3,3-difluoropropoxy)-2,6-difluorophenyl)-3-hydroxyazetidin-2-one] reads 2 to 25 nM; that for `O=C1[C@@H](O)[C@H](c2c(F)cc(OCCC(F)F)cc2F)N1c1ccc2[nH]cnc2c1` (racemic) [Compound 8TR, (trans and racemic)-1-(1H-benzo[d]imidazol-5-yl)-4-(4-(3,3-difluoropropoxy)-2,6-difluorophenyl)-3-hydroxyazetidin-2-one], 25 to 1000 nM; that for `Cn1cc(-c2cc(F)c(C3CC(=O)N3c3ccc4[nH]cnc4c3)c(F)c2)cn1` (racemic) [Compound 9, 1-(1H-benzo[d]imidazol-5-yl)-4-(2,6-difluoro-4-(1-methyl-1H-pyrazol-4-yl)phenyl)azetidin-2-one], 25 to 1000 nM. The result for `Cc1nc(-c2cc(F)c([C@H]3[C@@H](C)C(=O)N3c3ccc4[nH]cnc4c3)c(F)c2)cs1` (racemic) [Compound 10CR, (cis and racemic)-1-(1H-benzo[d]imidazol-5-yl)-4-(2,6-difluoro-4-(2-methylthiazol-4-yl)phenyl)-3-methylazetidin-2-one] reads 2 to 25 nM. In turn, `Cc1ncc(-c2cc(F)c([C@H]3[C@@H](C)C(=O)N3c3ccc4[nH]cnc4c3)c(F)c2)s1` (racemic) [Compound 11CR, (cis and racemic)-1-(1H-benzo[d]imidazol-5-yl)-4-(2,6-difluoro-4-(2-methylthiazol-5-yl)phenyl)-3-methylazetidin-2-one] returned a 50% inhibitory concentration (IC50) of 2 to 25 nM. The figure for `C[C@H]1C(=O)N(c2ccc3[nH]cnc3c2)[C@H]1c1c(F)cc(N2CCC(F)(F)C2)cc1F` (racemic) [Compound 12CR, (cis and racemic)-1-(1H-benzo[d]imidazol-5-yl)-4-(4-(3,3-difluoropyrrolidin-1-yl)-2,6-difluorophenyl)-3-methylazetidin-2-one] is 2 to 25 nM. The figure for `CC1C(=O)N(c2ccc3[nH]cnc3c2)C1c1c(F)cc(-c2cnn(C(F)(F)F)c2)cc1F` (racemic) [Compound 14, (cis and racemic)-1-(1H-benzo[d]imidazol-5-yl)-4-(2,6-difluoro-4-(1-(trifluoromethyl)-1H-pyrazol-4-yl)phenyl)-3-methyl azetidin-2-one] is 2 to 25 nM; for `O=C1[C@H](O)[C@H](c2c(F)cc(-c3cnn(C(F)(F)F)c3)cc2F)N1c1ccc2[nH]cnc2c1` (racemic) [Compound 16CR] it is less than 2 nM. In turn, `O=C1[C@@H](O)[C@H](c2c(F)cc(-c3cnn(C(F)(F)F)c3)cc2F)N1c1ccc2[nH]cnc2c1` (racemic) [Compound 16TR] came in with an IC50 of 25 to 1000 nM.
